# Measured values: publication PMC12102759 (Protein Science : A Publication of the Protein Society, 2025)
# Like-named read-outs stand apart in the source and are kept apart here.
# Tested on: PABPC1 PABC
# Assay type: binding, human
# Settings: DMS-BM library, bait PABPC1 PABC, row aa = residue at this position; for DMS-derived PSSM value (averaged), position T1 / DMS-derived PSSM value, position T3: T = wild type; for DMS-derived PSSM value, position R12 / DMS-derived PSSM value, position R14: R = wild type
# [1] = prey ATXN2, peptide TLNPNAKEFNPRSFSQ, N = wild type
# [2] = prey ATXN2, TLNPNAKEFNPRSF(averaged) over the two overlapping peptides
# [3] = prey ATXN2, peptide TLNPNAKEFNPRSFSQ, K = wild type
# [4] = prey ATXN2, peptide KSTLNPNAKEFNPRSF, P = wild type
# [5] = prey ATXN2, peptide TLNPNAKEFNPRSFSQ, F = wild type
# [6] = prey ATXN2, TLNPNAKEFNPRSF(averaged) over the two overlapping peptides, N = wild type
# [7] = prey ATXN2, TLNPNAKEFNPRSF(averaged) over the two overlapping peptides, F = wild type
# [8] = prey ATXN2, peptide KSTLNPNAKEFNPRSF, F = wild type
# [9] = prey ATXN2, peptide TLNPNAKEFNPRSFSQ, P = wild type
# [10] = prey ATXN2, peptide KSTLNPNAKEFNPRSF, N = wild type
# [11] = prey ATXN2, peptide KSTLNPNAKEFNPRSF, S = wild type
# [12] = prey ATXN2, TLNPNAKEFNPRSF(averaged) over the two overlapping peptides, L = wild type
# [13] = prey ATXN2, TLNPNAKEFNPRSF(averaged) over the two overlapping peptides, P = wild type
# [14] = prey ATXN2, peptide TLNPNAKEFNPRSFSQ
# [15] = prey ATXN2, TLNPNAKEFNPRSF(averaged) over the two overlapping peptides, S = wild type
# [16] = prey ATXN2, peptide KSTLNPNAKEFNPRSF
# [17] = prey ATXN2, peptide TLNPNAKEFNPRSFSQ, S = wild type
substance,measurement,setting,value
TLNPNAKEFNPRSFSQ N3Q (TLQPNAKEFNPRSFSQ),"DMS-derived PSSM value, position N3",[1],0.055
TLNPNAKEFNPRSF(averaged) T1N (NLNPNAKEFNPRSF),"DMS-derived PSSM value (averaged), position T1",[2],0.01868
TLNPNAKEFNPRSFSQ K7V (TLNPNAVEFNPRSFSQ),"DMS-derived PSSM value, position K7",[3],0.007815
KSTLNPNAKEFNPRSF P13T (KSTLNPNAKEFNTRSF),"DMS-derived PSSM value, position P13",[4],0.0002514
TLNPNAKEFNPRSFSQ F9H (TLNPNAKEHNPRSFSQ),"DMS-derived PSSM value, position F9",[5],0
TLNPNAKEFNPRSF(averaged) K7R (TLNPNAREFNPRSF),"DMS-derived PSSM value (averaged), position K7","prey ATXN2, TLNPNAKEFNPRSF(averaged) over the two overlapping peptides, K = wild type",0.01712
TLNPNAKEFNPRSF(averaged) N3K (TLKPNAKEFNPRSF),"DMS-derived PSSM value (averaged), position N3",[6],0
KSTLNPNAKEFNPRSF P6Y (KSTLNYNAKEFNPRSF),"DMS-derived PSSM value, position P6",[4],0
TLNPNAKEFNPRSFSQ A6Y (TLNPNYKEFNPRSFSQ),"DMS-derived PSSM value, position A6","prey ATXN2, peptide TLNPNAKEFNPRSFSQ, A = wild type",0
TLNPNAKEFNPRSF(averaged) T1R (RLNPNAKEFNPRSF),"DMS-derived PSSM value (averaged), position T1",[2],0.04124
TLNPNAKEFNPRSF(averaged) F14M (TLNPNAKEFNPRSM),"DMS-derived PSSM value (averaged), position F14",[7],0.1425
KSTLNPNAKEFNPRSF F11W (KSTLNPNAKEWNPRSF),"DMS-derived PSSM value, position F11",[8],0.203
TLNPNAKEFNPRSF(averaged) F14E (TLNPNAKEFNPRSE),"DMS-derived PSSM value (averaged), position F14",[7],0.01777
TLNPNAKEFNPRSFSQ K7P (TLNPNAPEFNPRSFSQ),"DMS-derived PSSM value, position K7",[3],0.006619
TLNPNAKEFNPRSFSQ P11Q (TLNPNAKEFNQRSFSQ),"DMS-derived PSSM value, position P11",[9],0.01526
KSTLNPNAKEFNPRSF N7T (KSTLNPTAKEFNPRSF),"DMS-derived PSSM value, position N7",[10],0.001519
KSTLNPNAKEFNPRSF S2A (KATLNPNAKEFNPRSF),"DMS-derived PSSM value, position S2",[11],0.03999
TLNPNAKEFNPRSFSQ N10W (TLNPNAKEFWPRSFSQ),"DMS-derived PSSM value, position N10",[1],0.06015
KSTLNPNAKEFNPRSF N5A (KSTLAPNAKEFNPRSF),"DMS-derived PSSM value, position N5",[10],0
TLNPNAKEFNPRSF(averaged) L2K (TKNPNAKEFNPRSF),"DMS-derived PSSM value (averaged), position L2",[12],0.0007818
TLNPNAKEFNPRSFSQ F14G (TLNPNAKEFNPRSGSQ),"DMS-derived PSSM value, position F14",[5],0.005512
KSTLNPNAKEFNPRSF P13V (KSTLNPNAKEFNVRSF),"DMS-derived PSSM value, position P13",[4],0.767
TLNPNAKEFNPRSF(averaged) P11Q (TLNPNAKEFNQRSF),"DMS-derived PSSM value (averaged), position P11",[13],0.04932
TLNPNAKEFNPRSF(averaged) F14I (TLNPNAKEFNPRSI),"DMS-derived PSSM value (averaged), position F14",[7],0.0374
TLNPNAKEFNPRSFSQ R12W (TLNPNAKEFNPWSFSQ),"DMS-derived PSSM value, position R12",[14],0.01782
TLNPNAKEFNPRSF(averaged) S13L (TLNPNAKEFNPRLF),"DMS-derived PSSM value (averaged), position S13",[15],0.2429
TLNPNAKEFNPRSFSQ P4E (TLNENAKEFNPRSFSQ),"DMS-derived PSSM value, position P4",[9],0.001688
KSTLNPNAKEFNPRSF P13D (KSTLNPNAKEFNDRSF),"DMS-derived PSSM value, position P13",[4],0.0004732
KSTLNPNAKEFNPRSF T3W (KSWLNPNAKEFNPRSF),"DMS-derived PSSM value, position T3",[16],0.01564
KSTLNPNAKEFNPRSF T3N (KSNLNPNAKEFNPRSF),"DMS-derived PSSM value, position T3",[16],0.01165
TLNPNAKEFNPRSFSQ R12N (TLNPNAKEFNPNSFSQ),"DMS-derived PSSM value, position R12",[14],0.04731
TLNPNAKEFNPRSFSQ P11M (TLNPNAKEFNMRSFSQ),"DMS-derived PSSM value, position P11",[9],0.01106
TLNPNAKEFNPRSFSQ F14R (TLNPNAKEFNPRSRSQ),"DMS-derived PSSM value, position F14",[5],0.0002828
TLNPNAKEFNPRSF(averaged) L2N (TNNPNAKEFNPRSF),"DMS-derived PSSM value (averaged), position L2",[12],0
TLNPNAKEFNPRSFSQ F14A (TLNPNAKEFNPRSASQ),"DMS-derived PSSM value, position F14",[5],0.01754
TLNPNAKEFNPRSFSQ S13W (TLNPNAKEFNPRWFSQ),"DMS-derived PSSM value, position S13",[17],0.02517
KSTLNPNAKEFNPRSF S2H (KHTLNPNAKEFNPRSF),"DMS-derived PSSM value, position S2",[11],0.0308
KSTLNPNAKEFNPRSF T3L (KSLLNPNAKEFNPRSF),"DMS-derived PSSM value, position T3",[16],0.01491
KSTLNPNAKEFNPRSF P13I (KSTLNPNAKEFNIRSF),"DMS-derived PSSM value, position P13",[4],0.01276
TLNPNAKEFNPRSF(averaged) N5L (TLNPLAKEFNPRSF),"DMS-derived PSSM value (averaged), position N5",[6],0.05209
TLNPNAKEFNPRSFSQ S15G (TLNPNAKEFNPRSFGQ),"DMS-derived PSSM value, position S15",[17],0.2429
KSTLNPNAKEFNPRSF N7Q (KSTLNPQAKEFNPRSF),"DMS-derived PSSM value, position N7",[10],0.04334
TLNPNAKEFNPRSF(averaged) P11I (TLNPNAKEFNIRSF),"DMS-derived PSSM value (averaged), position P11",[13],0.006686
KSTLNPNAKEFNPRSF N7E (KSTLNPEAKEFNPRSF),"DMS-derived PSSM value, position N7",[10],0.03193
KSTLNPNAKEFNPRSF A8K (KSTLNPNKKEFNPRSF),"DMS-derived PSSM value, position A8","prey ATXN2, peptide KSTLNPNAKEFNPRSF, A = wild type",0
KSTLNPNAKEFNPRSF F11I (KSTLNPNAKEINPRSF),"DMS-derived PSSM value, position F11",[8],0
TLNPNAKEFNPRSF(averaged) S13E (TLNPNAKEFNPREF),"DMS-derived PSSM value (averaged), position S13",[15],0.01358
TLNPNAKEFNPRSFSQ S13L (TLNPNAKEFNPRLFSQ),"DMS-derived PSSM value, position S13",[17],0.06939
TLNPNAKEFNPRSF(averaged) A6V (TLNPNVKEFNPRSF),"DMS-derived PSSM value (averaged), position A6","prey ATXN2, TLNPNAKEFNPRSF(averaged) over the two overlapping peptides, A = wild type",0.3197
KSTLNPNAKEFNPRSF P13M (KSTLNPNAKEFNMRSF),"DMS-derived PSSM value, position P13",[4],0
TLNPNAKEFNPRSFSQ N5T (TLNPTAKEFNPRSFSQ),"DMS-derived PSSM value, position N5",[1],0.0193
TLNPNAKEFNPRSF(averaged) E8G (TLNPNAKGFNPRSF),"DMS-derived PSSM value (averaged), position E8","prey ATXN2, TLNPNAKEFNPRSF(averaged) over the two overlapping peptides, E = wild type",0
KSTLNPNAKEFNPRSF P13N (KSTLNPNAKEFNNRSF),"DMS-derived PSSM value, position P13",[4],0.004405
KSTLNPNAKEFNPRSF F11M (KSTLNPNAKEMNPRSF),"DMS-derived PSSM value, position F11",[8],0
KSTLNPNAKEFNPRSF N7W (KSTLNPWAKEFNPRSF),"DMS-derived PSSM value, position N7",[10],0
TLNPNAKEFNPRSF(averaged) T1E (ELNPNAKEFNPRSF),"DMS-derived PSSM value (averaged), position T1",[2],0.1201
KSTLNPNAKEFNPRSF L4K (KSTKNPNAKEFNPRSF),"DMS-derived PSSM value, position L4","prey ATXN2, peptide KSTLNPNAKEFNPRSF, L = wild type",0
KSTLNPNAKEFNPRSF T3R (KSRLNPNAKEFNPRSF),"DMS-derived PSSM value, position T3",[16],0
TLNPNAKEFNPRSFSQ S13I (TLNPNAKEFNPRIFSQ),"DMS-derived PSSM value, position S13",[17],0
TLNPNAKEFNPRSFSQ N5Q (TLNPQAKEFNPRSFSQ),"DMS-derived PSSM value, position N5",[1],0.004159
KSTLNPNAKEFNPRSF R14A (KSTLNPNAKEFNPASF),"DMS-derived PSSM value, position R14",[16],0.09772
TLNPNAKEFNPRSF(averaged) N10K (TLNPNAKEFKPRSF),"DMS-derived PSSM value (averaged), position N10",[6],0.01006
TLNPNAKEFNPRSF(averaged) N10L (TLNPNAKEFLPRSF),"DMS-derived PSSM value (averaged), position N10",[6],0.09868
KSTLNPNAKEFNPRSF T3E (KSELNPNAKEFNPRSF),"DMS-derived PSSM value, position T3",[16],0.2365
TLNPNAKEFNPRSFSQ P11G (TLNPNAKEFNGRSFSQ),"DMS-derived PSSM value, position P11",[9],0.04287
KSTLNPNAKEFNPRSF N12R (KSTLNPNAKEFRPRSF),"DMS-derived PSSM value, position N12",[10],0.008293
TLNPNAKEFNPRSFSQ L2R (TRNPNAKEFNPRSFSQ),"DMS-derived PSSM value, position L2","prey ATXN2, peptide TLNPNAKEFNPRSFSQ, L = wild type",0
TLNPNAKEFNPRSFSQ R12A (TLNPNAKEFNPASFSQ),"DMS-derived PSSM value, position R12",[14],0.004965
KSTLNPNAKEFNPRSF R14F (KSTLNPNAKEFNPFSF),"DMS-derived PSSM value, position R14",[16],0.03238
KSTLNPNAKEFNPRSF N7P (KSTLNPPAKEFNPRSF),"DMS-derived PSSM value, position N7",[10],0
